Test results from ChEMBL document CHEMBL4725222, “Advances in the Development of Phosphodiesterase-4 Inhibitors” (J Med Chem, 2020).

Key:
Phosphodiesterase 4 = Phosphodiesterase 4 (Homo sapiens, UniProt P27815+Q08499+Q07343+Q08493); experiment: Inhibition of human PDE4 expressed in Saccharomyces cerevisiae preincubated for 30 mins followed by cAMP substrate addition
Homo sapiens [1] = experiment: Inhibition of late allergic response in atopic asthmatic patient assessed as reduction in weighted mean FEV1 level at 87.5 ug administered once daily via inhalation for 7 days followed by allergen challenge relative to placebo; format: functional; conditions: dose 87.5 µg; time 7 day
Homo sapiens [2] = experiment: Inhibition of early allergic response in atopic asthmatic patient assessed as reduction in minimum FEV1 level at 87.5 ug administered once daily via inhalation for 7 days followed by allergen challenge relative to placebo; format: functional; conditions: dose 87.5 µg; time 7 day
Homo sapiens [3] = experiment: Inhibition of early allergic response in atopic asthmatic patient assessed as reduction in weighted mean FEV1 level at 87.5 ug administered once daily via inhalation for 7 days followed by allergen challenge relative to placebo; format: functional; conditions: dose 87.5 µg; time 7 day
Homo sapiens [4] = experiment: Inhibition of late allergic response in atopic asthmatic patient assessed as reduction in minimum FEV1 level at 87.5 ug administered once daily via inhalation for 7 days followed by allergen challenge relative to placebo; format: functional; conditions: dose 87.5 µg; time 7 day

IC50 (Phosphodiesterase 4): 3.2 pM
Compound: COc1cccc(Nc2c(C(N)=O)cnc3c(C)cc(S(=O)(=O)c4cccc(C(=O)N(C)C)c4)cc23)c1 [GSK-256066]
inhibition (INH) (Homo sapiens [1]): 34.3%
inhibition (INH) (Homo sapiens [2]): 40.9%
inhibition (INH) (Homo sapiens [3]): 57.2%
inhibition (INH) (Homo sapiens [4]): 26.2%
